# Patent US9187411B2, “Leukotriene B4 antagonist compound” (Eli Lilly and Company, priority 2012, dated 2015)
# Tested on: LTB4-induced phosphorylation of ERK in monocytes
# Experiment: Mouse pERK assay in whole blood
# Type: cell-based, 129SvEv mice
# Conditions: Monocyte, 20 nM LTB4
# Procedure: The ability of the compound of Example 2 to block LTB4-induced signaling through BLT1 was assessed in whole blood obtained from healthy human volunteers and from 129SvEv mice that are the model strain for preclinical AAA efficacy evaluation.
# Whole blood is collected from 129SvEv mice in 50 mM EDTA (Gibco). For in vitro experiments, 10 point dose response curves of test compounds are assayed at final concentrations of 20 nM-10 μM. 10 point ½ serial dilutions of compound at 1000× of final assayed concentration are prepared in DMSO. Compound is then diluted to 10× in DPBS (DMSO concentration is now 1%). 10 μL of compound dilutions (at 10× diluted in DPBS) or 1% DMSO in DPBS are added to wells of a 96 deep well plate. 80 μL whole blood is added and incubated for 20 min at room temperature (10 μL of anti-mouse LY6G-FITC antibody (BD Pharmingen) and 10 μl of anti-mouse CD11b-APC BD Biosciences at 1 μg/mL final concentrations are added for final 10 min) 11 μL of 10× pre-warmed LTB4 (final concentration 20 nM) is added and incubated at 37° C. for 2 min. Reaction is stopped with 1.5 mL of 1× Phosflow Lyse/Fix from BD Biosciences (pre-warmed to 37° C.). The plate is sealed, vortexed, and incubated at 37° C. for 10 min. Cells are washed once with 1.5 mL DPBS then permeablized with 1 mL BD Perm/Wash buffer (BD Biosciences) for 10 min at room temperature. […]
smiles,measurement,value
"CCCc1c(NC(=O)CC(C)(C)C(=O)[O-])cccc1OCCCOc1cc(O)c(-c2ccc(F)cc2)cc1CC.[Na+] [Example 2, Sodium 4-[[3-[3-[2-ethyl-4-(4-fluorophenyl)-5-hydroxy-phenoxy]propoxy]-2-propyl-phenyl]amino]-2,2-dimethyl-4-oxo-butanoate]",IC50,243 nM
